In data set [1] the target is T1, Estrogen receptor (Ovis aries) (UniProt P49885+Q9TU15). As to the kind of experiment: Binding affinity against estrogen receptor in lamb uterine cytosol, relative to that of [3H]estradiol. Type of data set: protein assay.
Data set [2] is described as follows: Half life was determined. Type of data set: ADME. Particulars: rat.
Data set [3] deals with T1, Estrogen receptor (Ovis aries). As to the kind of experiment: Inactivation of lamb uterine estrogen receptor. Type of data set: protein assay. The arrangement: concentration or dose not given beside the values.

In data set [1], `CC[C@H](c1ccc(O)cc1)[C@@H](CC)c1ccc(S(=O)(=O)N=[N+]=[N-])cc1` returned a Binding affinity of 1.8%.

In data set [1], `CCOC(=O)COc1ccc([C@H](CC)[C@H](CC)c2ccc(O)cc2)cc1` returned a Binding affinity of 2.2%.

Compound `CC[C@H](c1ccc(O)cc1)[C@@H](CC)c1ccc(C(=O)O)cc1` came in with a Binding affinity in data set [1] of 1.8%.

With `CC[C@H](c1ccc(O)cc1)[C@@H](CC)c1ccc(CO)cc1`, in data set [1], the Binding affinity amounted to 40%.

Broadly, the half-life is the time needed for the level to fall by half in the phase considered. Compound `CC[C@H](c1ccc(O)cc1)[C@@H](CC)c1ccc(S(=O)(=O)F)cc1` gave a half-life in data set [2] of 60 min. In data set [1], this compound registered a Binding affinity of 0.33%. The compound further displayed an Inactivation in data set [3] of 24%.

Take `CC[C@H](c1ccc(O)cc1)[C@@H](CC)c1ccc(OCC(O)CBr)cc1` (stereo partly drawn): the half-life in data set [2] is 30 min. In data set [1], the Binding affinity amounted to 3.2%. This compound registered an Inactivation in data set [3] of 36%.

`CC[C@H](c1ccc(O)c(CCCO)c1)[C@@H](CC)c1ccc(O)cc1` had a Binding affinity in data set [1] of 12%.

For `CC[C@H](c1ccc(O)cc1)[C@@H](CC)c1ccc(OCC(=O)CCl)cc1`, the half-life in data set [2] was 15 min. The compound also yielded a Binding affinity in data set [1] of 10%. Further, in data set [3], the Inactivation is 31%.

Compound `CC[C@H](c1ccc(O)cc1)[C@@H](CC)c1ccc(OCC(=O)O)cc1` had a Binding affinity in data set [1] of 0.12%.

In the case of `CC[C@H](c1ccc(O)cc1)[C@@H](CC)c1ccc(OCC(C)O)cc1` (stereo partly drawn), in data set [1], the Binding affinity is 4.3%.

Regarding `CC[C@H](c1ccc(O)cc1)[C@@H](CC)c1ccc(OCCO)cc1`, the Binding affinity in data set [1] stood at 21%.

Compound `CC[C@H](c1ccc(O)cc1)[C@@H](CC)c1ccc(N=[N+]=[N-])cc1` had a Binding affinity in data set [1] of 5.7%.

`CC[C@H](c1ccc(O)cc1)[C@@H](CC)c1ccc(OCC(C)=O)cc1` came in with a Binding affinity in data set [1] of 11%.

In data set [1], `CC[C@H](c1ccc(O)cc1)[C@@H](CC)c1ccc(OCC(=O)C=[N+]=[N-])cc1` showed a Binding affinity of 2%.

In turn, `CC[C@H](c1ccc(O)cc1)[C@@H](CC)c1ccc(CCl)cc1` had a half-life in data set [2] of 78 min. Moreover, in data set [1], the Binding affinity worked out at 8%. The compound also registered an Inactivation in data set [3] of 63%.

`C=CCc1cc([C@@H](CC)[C@@H](CC)c2ccc(O)cc2)ccc1O`: in data set [1], the Binding affinity stood at 54%.

Compound `C=CCOc1ccc([C@H](CC)[C@H](CC)c2ccc(O)cc2)cc1` gave a Binding affinity in data set [1] of 5.4%.

`CC[C@H](c1ccc(O)cc1)[C@@H](CC)c1ccc(C(=O)CCl)cc1` showed a half-life in data set [2] of 30 min. In data set [1], this compound showed a Binding affinity of 0.44%. In addition, the Inactivation in data set [3] stood at 29%.

For `CC[C@H](c1ccc(O)cc1)[C@@H](CC)c1ccc(OCCOCCCl)cc1`, the Binding affinity in data set [1] came to 0.9%.

On to `CC[C@H](c1ccc(O)cc1)[C@@H](CC)c1ccc(C(C)=O)cc1`, for which the Binding affinity in data set [1] came out at 4.1%.

`CC[C@H](c1ccc(O)cc1)[C@@H](CC)c1ccc(OC)cc1` had a Binding affinity in data set [1] of 19%.

In data set [2], `CC[C@H](c1ccc(O)cc1)[C@@H](CC)c1ccc(CBr)cc1` showed a half-life of 150 min. The compound also returned a Binding affinity in data set [1] of 9.3%. Also, in data set [3], the Inactivation amounted to 70%.

With `CC[C@H](c1ccc(O)cc1)[C@@H](CC)c1ccc([N+](=O)[O-])cc1`, the Binding affinity in data set [1] stood at 11%.

On to `CC[C@H](c1ccc(O)cc1)[C@@H](CC)c1ccc(C(=O)CBr)cc1`, for which the half-life in data set [2] is < 30 min. Further, in data set [1], the Binding affinity was determined as 1.1%. In data set [3], this compound gave an Inactivation of 44%.

For `CC[C@H](c1ccc(O)cc1)[C@@H](CC)c1ccc(C#N)cc1`, the Binding affinity in data set [1] stood at 5.2%.

`CCC(c1ccc(O)cc1)C(CC)c1ccc(OC)cc1` (stereo not drawn) returned a Binding affinity in data set [1] of 17%.

`CC[C@H](c1ccc(O)cc1)[C@@H](CC)c1ccc(OCC2CO2)cc1` (stereo partly drawn) had a half-life in data set [2] of 240 min. For the same compound, the Binding affinity in data set [1] amounted to 7.4%. Moreover, the Inactivation in data set [3] came to 44%.

Take `CC[C@H](c1ccc(O)cc1)[C@@H](CC)c1ccc(OCC(=O)CBr)cc1`: the half-life in data set [2] was < 30 min. The Binding affinity in data set [1] turned out to be 9.5%. The same compound yielded an Inactivation in data set [3] of 24%.

In data set [1], `CCOCc1ccc([C@H](CC)[C@H](CC)c2ccc(O)cc2)cc1` gave a Binding affinity of 4.9%.

As for `CC[C@H](c1ccc(O)cc1)[C@@H](CC)c1ccc(N)cc1`, the Binding affinity in data set [1] came out at 95%.

The compound `CCOC(=N)c1ccc([C@H](CC)[C@H](CC)c2ccc(O)cc2)cc1` had a Binding affinity in data set [1] of 1.9%.

Compound `CC[C@H](c1ccc(O)cc1)[C@@H](CC)c1ccc(OCC(O)CO)cc1` (stereo partly drawn) gave a Binding affinity in data set [1] of 6.9%.

For the compound `CC[C@H](c1ccc(O)cc1)[C@@H](CC)c1ccc(OCC(O)CCl)cc1` (stereo partly drawn), the half-life in data set [2] was 30 min. The compound further registered a Binding affinity in data set [1] of 4%. This compound yielded an Inactivation in data set [3] of 24%.
